{"source": "patent US12084709B2", "about": "“Screening method” (Mars, Incorporated, priority 2018, dated 2024)", "system": "Porphyromonas macacae JN713359", "assay": "mBB fluorescent C-S lyase / VSC production method with whole bacteria", "format": "cell-based", "settings": "0.12% CHX treatment; relative to control", "procedure": "The C-S lyase activity was measured in order to quantitate VSC production by the bacteria. This was conducted by using monobromobiname, a fluorescent probe for thiol. The bacteria were washed and resuspended in Tris buffer (pH 8.5) at OD=1.0. The 250 μL reaction mix contained 4 mM benzylcysteine, 100 μM monobromobimane, 10 μM pyridoxal 5′-phosphate, 50 μL of the bacteria suspension and was made up to 250 μL with tris buffer (pH 8.5). The mix was incubated anaerobically for 45 minutes at 37° C. The C-S lyase activities were determined based on fluorescence at 490 nm (em) upon excitation at 385 nm (ex). All measurements were performed in biological duplicate with each repeated in technical triplicates, creating total of 6 data points per strain. Blank measurements (containing buffer instead of crude extract) were used to correct the values derived from the substrate. The standard curve was measured using Benzyl mercaptan at 8-128 μM. The protein concentration of the bacteria suspension was determined by means of a commercially available BCA kit in accordance with the manufacturer's method. The specific C-S lyase activity was calculated by dividing the increase in fluorescence equivalent to Benzyl mercaptan concentration by the total protein content of the suspension in mg and expressed as unit which was defined as “nM Benzyl mercaptan release/μg protein/minute”. […]"}
{"molecule": "[H]/N=C(\\N/C(=N/[H])NCCCCCCNC(=N)NC(=N)Nc1ccc(Cl)cc1)Nc1ccc(Cl)cc1", "note": "[CHX, Chlorhexidine, reference compound]", "values": [{"measurement": "quantity of VSC produced as the control", "result": 25, "unit": "%"}]}
